Laboratory results published in patent publication EP0671915B1, “USE OF IDAZOXAN AND DERIVATIVES THEREOF IN PREPARING A DRUG FOR TREATING PARKINSON'S DISEASE AND ITS DEVELOPMENT” (PIERRE FABRE MEDICAMENT, priority 1992, dated 1994).

Legend:
[1] = Clinical study in idiopathic Parkinson's disease patients versus 1-DOPA: motor symptoms; format: in vivo; design: key: 0 : pas de changements par rapport à avant le traitement; + a +++ amélioration; + a +++ amélioration; + a +++ amélioration; conditions: oral, 4 weeks; for symptômes précoces, persistance de l'amélioration après traitement / symptômes précoces, pendant traitement: eye blinking; for symptômes précoces, persistance de l'amélioration après traitement / symptômes tardifs, persistance de l'amélioration après traitement: after end of treatment; for symptômes précoces, pendant traitement / symptômes tardifs, pendant traitement: during treatment; for symptômes tardifs, persistance de l'amélioration après traitement / symptômes tardifs, pendant traitement: hypokinesia
Procedure: 20 patients ont été sélectionnés répondant aux critères idiopathiques de la maladie de Parkinson et une étude a été menée contre la 1-DOPA.
Les administrations sont effectuées pendant 4 semaines par voie orale dans une gamme de dose de 500 mg à 4 g par jour pour la 1-DOPA, et pour l'Idazoxan d'une dose initiale de 3 fois 5 mg par jour croissant à un maximum de 3 fois 40 mg par jour, le clinicien déterminant la posologie exacte pour chaque patient.
L'efficacité des traitements a été mesurée sur les symptômes moteurs, du type tremblement d'action, d'intention, de repos, sur l'hypokinésie (symptômes tardifs) et le clignement des paupières (symptôme précoce de la maladie). Les observations ont été faites pendant le traitement et après arrêt du traitement pour mettre en évidence la persistance éventuelle de l'amélioration des symptômes.

neurones dopaminergiques = experiment: Mouse model of DSP4 + MPTP induced degeneration: cortical noradrenaline and striatal dopamine levels; format: in vivo, souris; design: key to Taux de NA cortical / Taux de DA striatale: * à *** niveau de dégénérescence estimé par la diminution des taux de NA cortical et DA striatale; * à *** niveau de dégénérescence estimé par la diminution des taux de NA cortical et DA striatale; * à *** niveau de dégénérescence estimé par la diminution des taux de NA cortical et DA striatale; conditions: for Taux de DA striatale / Taux de NA cortical: mice given DSP4 and MPTP, then treated, measured after end of treatment, symbol = level of degeneration
voie nigro-striée = experiment: Squirrel monkey MPTP model with noradrenergic lesion (protocol analogous to Mavridis et al.); format: in vivo, singe écureuil; conditions: behavioural, biochemical and histological results
Text: L'emploi de l'idazoxan a également été étudié chez le singe écureuil selon un protocole analogue à celui de M. MAVRIDIS et al. Neuroscience 41,507 (1991).
Les résultats comportementaux, biochimiques et histologiques montrent qu'une lésion du système noradrénergique induit une dégénération de la voie nigrostriée après administration du MPTP.

[2] = depression; 5 to 40 mg, 3 times a day for 4 weeks; versus placebo; cited from earlier work

N[C@@H](Cc1ccc(O)c(O)c1)C(=O)O [1-DOPA, reference compound]
symptômes précoces, persistance de l'amélioration après traitement [1]: 0
symptômes précoces, pendant traitement [1]: +++
symptômes tardifs, persistance de l'amélioration après traitement [1]: 0
symptômes tardifs, pendant traitement [1]: +++

CN1CCc2cccc3c2[C@H]1Cc1ccc(O)c(O)c1-3 [G, apomorphine, reference compound]
Taux de DA striatale (neurones dopaminergiques): ***
Taux de NA cortical (neurones dopaminergiques): *

c1ccc2c(c1)OCC(C1=NCCN1)O2 (stereo not drawn) [idazoxan, 2-(2-(1,4-benzodioxanyl))-2-imidazoline]
Taux de DA striatale (neurones dopaminergiques): *
Taux de NA cortical (neurones dopaminergiques): *
dégénérescence de neurones dopaminergiques provoquée par le DSP4 et la MPTP (neurones dopaminergiques; shown by slower fall of striatal dopamine compared with 1-DOPA (Groupe F) or apomorphine (Groupe G)): ralentissement de la dégénérescence de neurones dopaminergiques
effet de la lésion de la voie nigro-striée (voie nigro-striée): diminue l'effet de la lésion de la voie nigro-striée et améliore l'évolution
symptômes précoces, persistance de l'amélioration après traitement [1]: ++
symptômes précoces, pendant traitement [1]: ++
symptômes tardifs, persistance de l'amélioration après traitement [1]: +
symptômes tardifs, pendant traitement [1]: +
échelle de Hamilton [2]: amélioration significative
